{"source": "patent US20150031734A1", "about": "“PHARMACEUTICAL COMPOSITION CONTAINING MIRABEGRON” (ASTELLAS PHARMA INC., priority 2012, published 2015)", "key": {"[1]": {"experiment": "Pharmacokinetics test (dogs), fasted and fed, Experimental Example 4", "type": "in vivo, male beagle dogs", "settings": "for AUC0-10 h / Cmax: oral, 50 mg as mirabegron, plasma", "procedure": "The rates of decrease of Cmax and AUC are calculated by the following equations:\nRd(Cmax)=[1−Cmax(Fed)/Cmax(Fasted)]×100\nRd(AUC)=[1−AUC(Fed)/AUC(Fasted)]×100\nRd(Cmax): Rate of decrease of Cmax (%) Cmax(Fed): Cmax in administration after food intake Cmax(Fasted): Cmax in administration in the fasted state Rd(AUC): Rate of decrease of AUC (%) AUC(Fed): AUC in administration after food intake AUC(Fasted): AUC in administration in the fasted state\nThe resulting suspension was orally administered to male beagle dogs using a sonde in a fasted state (Fasted) or after 30 minutes from the intake of a meal (Fed), and the drug concentration in the plasma was measured after predetermined periods of time. As the meal, 50 g of meat feed was used."}, "[2]": {"experiment": "Stability of stored suspension by dissolution test, Experimental Example 5", "type": "physicochemical", "settings": "vs before storage", "procedure": "The expression “the dissolution or leakage of mirabegron is reduced or inhibited” as used herein means when the pharmaceutical composition of the present invention, which was dispersed in a solvent and has been stored, is subjected to a dissolution test in accordance with the dissolution test, method 2 (paddle method) described in the Japanese Pharmacopoeia, using 900 mL of an appropriate test solution (for example, the second fluid (JP2) described in the dissolution test of the Japanese Pharmacopoeia), for example, at a paddle rotation speed of 50-200 rpm, the change in dissolution rate is 15% or less at the maximum in comparison with the value before the storage. The change in dissolution rate is 10% or less in another embodiment, 5% or less in still another embodiment, and 3% or less in still another embodiment.\nThese bottles were allowed to stand in a cool place (5° C.) or under room temperature conditions for a month. The xanthan gum solution was prepared by adding xanthan gum to water at a concentration of 1 W/W % while stirring. After the storage, each suspension (25 mg as the amount of mirabegron) was used to carry out a dissolution test in accordance with the dissolution test, method 2 (paddle method) described in the Japanese Pharmacopoeia. As the test solution, 900 mL of the second fluid (JP2) described in the disintegration test of the Japanese Pharmacopoeia was used. […]"}, "[3]": {"experiment": "Dissolution test, paddle method, JP2, 50 rpm, Experimental Example 3", "type": "physicochemical", "settings": "900 mL JP2, paddle 50 rpm", "procedure": "The acid addition salts of the present invention prepared in Examples 4 and 5 (25 mg as the amount of mirabegron) were used to carry out a dissolution test in accordance with the dissolution test, method 2 (paddle method) described in the Japanese Pharmacopoeia. As the test solution, 900 mL of the second fluid (JP2) described in the disintegration test of the Japanese Pharmacopoeia was used. The paddle rotation speed was 50 rpm. The same dissolution test was carried out using the mixtures prepared in Comparative Examples 2 to 5."}, "[4]": {"experiment": "Drug concentration (solubility) in supernatant, Experimental Example 1", "type": "physicochemical", "settings": "shaken at room temperature for 24 hours, 150 mg as mirabegron; for solubility thermodynamic at 24 h: thermodynamic from solid", "procedure": "The drug concentration (solubility) of each compound to be assayed was measured in accordance with the following method.\nAfter the shaking, the mixtures were centrifuged at 3000 rpm for 15 minutes, and the drug concentration in each supernatant was measured."}, "[5]": {"settings": "in comparison with the fasted state"}}, "data": [{"smiles": "CCCCCCCCCCCCOS(=O)(=O)O.CCCCCCCCCCCCOS(=O)(=O)O.Nc1nc(CC(=O)Nc2ccc(CCNC[C@H](O)c3ccccc3)cc2)cs1", "note": "[Example 1]", "values": [{"measurement": "AUC0-10 h", "setting": "[1]; Fasted", "value": "1027 ± 208", "unit": "ng·h/mL"}, {"measurement": "Cmax", "setting": "[1]; Fasted", "value": "295 ± 166", "unit": "ng/mL"}, {"measurement": "AUC0-10 h", "setting": "[1]; Fed (30 minutes after meal)", "value": "833 ± 122", "unit": "ng·h/mL"}, {"measurement": "Cmax", "setting": "[1]; Fed (30 minutes after meal)", "value": "229 ± 86", "unit": "ng/mL"}, {"measurement": "rate of decrease of AUC in the fed state", "setting": "[1]; [5]", "value": 19, "unit": "%"}, {"measurement": "rate of decrease of Cmax in the fed state", "setting": "[1]; [5]", "value": 22, "unit": "%"}, {"measurement": "change in dissolution rate at the maximum", "setting": "[2]; suspension in xanthan gum solution stored at room temperature for a month", "value": 0.8, "unit": "%"}, {"measurement": "change in dissolution rate", "setting": "[2]; suspension in xanthan gum solution stored in a cool place (5° C.) for a month", "value": "no change in dissolution rate was observed"}]}, {"smiles": "CCCCCCCCCCCCOS(=O)(=O)O.CCCCCCCCCCCCOS(=O)(=O)O.Nc1nc(CC(=O)Nc2ccc(CCNCC(O)c3ccccc3)cc2)cs1", "note": "(stereo not drawn) [Example 4]", "values": [{"measurement": "Dissolution rate", "setting": "[3]; 2 min.", "value": 5.4, "unit": "%"}, {"measurement": "Dissolution rate", "setting": "[3]; 15 min.", "value": 14.4, "unit": "%"}]}, {"smiles": "Nc1nc(CC(=O)Nc2ccc(CCNC[C@H](O)c3ccccc3)cc2)cs1", "note": "[Mirabegron, (R)-2-(2-aminothiazol-4-yl)-4′-{2-[(2-hydroxy-2-phenylethyl)amino]ethyl}acetanilide]", "values": [{"measurement": "solubility thermodynamic at 24 h", "setting": "[4]; 10^-1 mol/L hydrochloric acid, simulated gastric fluid, 10^−1 mol/L HCl", "value": 12900, "unit": "µg/mL"}, {"measurement": "solubility thermodynamic at 24 h", "setting": "[4]; 10^-3 mol/L hydrochloric acid, aqueous buffer, 10^−3 mol/L HCl", "value": 501, "unit": "µg/mL"}, {"measurement": "solubility thermodynamic at 24 h", "setting": "[4]; Purified water", "value": 116, "unit": "µg/mL"}]}, {"smiles": "CCCCCCCCCCCCCCOS(=O)(=O)O.CCCCCCCCCCCCCCOS(=O)(=O)O.Nc1nc(CC(=O)Nc2ccc(CCNC[C@H](O)c3ccccc3)cc2)cs1", "note": "[Example 2]", "values": [{"measurement": "Drug concentration in supernatant", "setting": "[4]; 10^−1 mol/L HCl", "value": 19000, "unit": "ng/mL"}, {"measurement": "Drug concentration in supernatant", "setting": "[4]; 10^−3 mol/L HCl", "value": 30000, "unit": "ng/mL"}, {"measurement": "Drug concentration in supernatant", "setting": "[4]; Purified water", "value": 10000, "unit": "ng/mL"}]}, {"smiles": "CCCCCCCCCCCCCCCCOS(=O)(=O)O.CCCCCCCCCCCCCCCCOS(=O)(=O)O.Nc1nc(CC(=O)Nc2ccc(CCNC[C@H](O)c3ccccc3)cc2)cs1", "note": "[Example 3]", "values": [{"measurement": "Drug concentration in supernatant", "setting": "[4]; 10^−1 mol/L HCl", "value": 64000, "unit": "ng/mL"}, {"measurement": "Drug concentration in supernatant", "setting": "[4]; 10^−3 mol/L HCl", "value": 21000, "unit": "ng/mL"}, {"measurement": "Drug concentration in supernatant", "setting": "[4]; Purified water", "value": 4000, "unit": "ng/mL"}]}, {"smiles": "CCCCCCCCCCCCOS(=O)(=O)O.Nc1nc(CC(=O)Nc2ccc(CCNCC(O)c3ccccc3)cc2)cs1", "note": "(stereo not drawn) [Example 5]", "values": [{"measurement": "Dissolution rate", "setting": "[3]; 2 min.", "value": 12.8, "unit": "%"}, {"measurement": "Dissolution rate", "setting": "[3]; 15 min.", "value": 41.3, "unit": "%"}]}]}
